The target in assay [1] is T1, DAT (Rattus norvegicus, UniProt P23977).
T1 construct: from tissue; host or cells: rat caudate membranes
Put plainly: Dopamine transporter binding, inhibition of [^3H]WIN35428 binding in rat caudate membranes. To be noted: for EC50: read-out: WIN Binding EC50 (μM ± SD); for Emax: 2 h, read-out: DAT Binding εmax. On the procedure:
The ability of test drugs to inhibit [^3H]WIN35428 binding to DAT in rat caudate membranes was assessed as follows. For each experiment, caudates from four rat brains were suspended in 15 mL ice cold assay buffer (50 mM sodium phosphate pH 7.4) and homogenized using a polytron (setting 6, 20 sec). The homogenate was centrifuged at 30,000×g for 10 minutes at 4° C. The pellet was resuspended with vigorous vortexing in 15 mL fresh ice cold assay buffer, and the centrifugation was repeated. The pellet was resuspended in 15 mL fresh ice cold assay buffer with vigorous vortexing followed by six strokes with a glass-on-glass hand-held homogenizer and was diluted to a final volume of 235 mL in ice cold assay buffer. [^3H]WIN35428 was diluted to 10 nM in assay buffer that contained 25 μg/mL chymostatin, 25 μg/mL leupeptin, 0.1 mM EDTA, and 0.1 mM EGTA. Each assay tube contained 0.75 mL membrane preparation, 0.15 mL test drug diluted in assay buffer containing 1 mg/mL bovine serum albumin, and 0.1 mL [^3H]WIN35428 preparation (final concentration of 1 nM). Assays were initiated by the addition of membranes and were terminated after 2 hours at 25° C. by rapid vacuum filtration. Retained tritium was measured as described. The data from three experiments were pooled and fit to a dose-response curve equation (using Kaleidagraph), to yield an Emax and EC50 value.

The target of assay [2] is norepinephrine transporter (NET) (Rattus norvegicus, UniProt Q9WTR4). Put plainly: Norepinephrine reuptake ([^3H]norepinephrine uptake) inhibition in rat brain synaptosomes. Particulars: for NE Uptake Emax (% I ± SD): maximal inhibition from dose-response fit.
Experimental: Freshly removed whole brain minus cerebellum and caudate was homogenized in 10% ice-cold sucrose with 12 strokes of a hand-held Potter-Elvehjem homogenizer followed by centrifugation at 1000×g for 10 minutes. The supernatants were saved on ice and used immediately. Transporter activity at NET was assessed using 10 nM [^3H]norepinephrine. […] Uptake inhibition assays were conducted at 37° C. and were initiated by adding 100 μL of tissue to 900 μL assay buffer containing test drug and [^3H]norepinephrine. Test drugs were diluted in assay buffer containing 1 mg/mL bovine serum albumin. Nonspecific uptake was measured by incubating in the presence of 10 μM indatraline. The reactions were stopped after 10 minutes by rapid vacuum filtration with a cell harvester (BRANDEL) over GF/B filters (Whatman) presoaked in wash buffer maintained at 25° C. (10 mM Tris-HCl, pH 7.4/150 mM NaCl). Filters were rinsed with 6 mL wash buffer and retained tritium was quantified by a MicroBeta liquid scintillation counter (PerkinElmer) after overnight extraction in 0.6 mL of liquid scintillation cocktail (Cytoscint, ICN). The data from three experiments were pooled and fit to a dose-response curve equation (using Kaleidagraph), to yield an Emax and EC50 value.
The data from three experiments were pooled and fit to a dose-response curve equation (using KaleidaGraph; Synergy Software, Reading, Pa.) to yield an Emax and IC50 value.
Assay [3] has as its target T2, dopamine transporter (DAT) (Rattus norvegicus, UniProt P23977). Put plainly: Dopamine transporter-mediated [^3H]MPP^+ release, shift of D-amphetamine-induced release, rat caudate synaptosomes. Format: biochemical. Details: Freshly removed caudate was homogenized in 10% ice-cold sucrose; from tissue; host or cells: rat caudate synaptosomes. Particulars: for Kb: apparent Ke from shift of D-amphetamine-induced [^3H]MPP^+ release, compound at the concentration of column 1, read-out: Ke App; for Apparent Kc: [3H]MPP+ release, Apparent Kc = [Blocker]/((EC50-2/EC50-1) − 1), negative when shifted EC50 is less than control.

The target of assay [4] is T3, serotonin transporter (SERT) (Rattus norvegicus, UniProt P31652).
T3 construct: Freshly removed whole brain minus cerebellum and caudate was homogenized; from tissue; host or cells: rat whole brain minus cerebellum and caudate, synaptosomes
T3 sequence (P31652 whole entry): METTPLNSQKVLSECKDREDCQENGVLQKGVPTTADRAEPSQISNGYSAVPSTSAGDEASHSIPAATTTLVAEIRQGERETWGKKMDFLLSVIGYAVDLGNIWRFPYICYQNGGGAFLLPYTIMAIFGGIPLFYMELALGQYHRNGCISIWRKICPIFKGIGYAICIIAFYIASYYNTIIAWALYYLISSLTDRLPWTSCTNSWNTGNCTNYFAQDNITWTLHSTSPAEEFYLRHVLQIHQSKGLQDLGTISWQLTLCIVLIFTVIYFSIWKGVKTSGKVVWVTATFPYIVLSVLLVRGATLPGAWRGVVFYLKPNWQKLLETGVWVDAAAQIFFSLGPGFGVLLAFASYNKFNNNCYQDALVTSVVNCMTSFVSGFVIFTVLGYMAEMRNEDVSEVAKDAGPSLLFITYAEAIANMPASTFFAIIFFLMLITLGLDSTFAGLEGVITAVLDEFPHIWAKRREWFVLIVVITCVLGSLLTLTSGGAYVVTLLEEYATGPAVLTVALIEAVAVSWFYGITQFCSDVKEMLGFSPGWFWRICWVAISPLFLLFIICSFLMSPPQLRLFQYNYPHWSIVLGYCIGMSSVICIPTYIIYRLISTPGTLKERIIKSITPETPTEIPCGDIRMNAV
Put plainly: Serotonin reuptake ([^3H]serotonin uptake) inhibition in rat brain synaptosomes. Format: biochemical. To be noted: mean ± S.D., n = 3; for Emax: read-out: SERT Uptake Emax; for IC50: read-out: SERT Uptake IC50.

For assay [5], the target named is T2, dopamine transporter (DAT). Description: Dopamine reuptake ([^3H]dopamine uptake) inhibition in rat brain synaptosomes.
The mark [6] stands for this setting: rat brain synaptosomes, 10 nM [^3H]norepinephrine.
[7] abbreviates: read-out: NE Uptake EC50 (nM ± SD), rat brain synaptosomes, 10 nM [^3H]norepinephrine, 10 min, 37° C.
The mark [8] stands for this setting: Emax of D-amphetamine for [^3H]MPP^+ release in presence of 500 nM test compound.
The mark [9] stands for this setting: DAT Uptake IC50, [3H]DA uptake inhibition, mean ± S.D., n = 3.
Where [10] appears, read: IC50 for DAT Uptake Inhibition, rounded value as listed in Table 10.
[11] abbreviates: read-out: Emax for DAT Uptake Inhibition.
Where [12] appears, read: read-out: NET Uptake IC50, mean ± S.D., n = 3.

Read-outs that look alike come from different tables or passages of the source.

The values below come from patent US9873702B2, “Heterocyclic compounds as biogenic amine transport modulators” (Southern Research Institute, priority 2014, dated 2018).

T2 sequence (P23977 whole entry): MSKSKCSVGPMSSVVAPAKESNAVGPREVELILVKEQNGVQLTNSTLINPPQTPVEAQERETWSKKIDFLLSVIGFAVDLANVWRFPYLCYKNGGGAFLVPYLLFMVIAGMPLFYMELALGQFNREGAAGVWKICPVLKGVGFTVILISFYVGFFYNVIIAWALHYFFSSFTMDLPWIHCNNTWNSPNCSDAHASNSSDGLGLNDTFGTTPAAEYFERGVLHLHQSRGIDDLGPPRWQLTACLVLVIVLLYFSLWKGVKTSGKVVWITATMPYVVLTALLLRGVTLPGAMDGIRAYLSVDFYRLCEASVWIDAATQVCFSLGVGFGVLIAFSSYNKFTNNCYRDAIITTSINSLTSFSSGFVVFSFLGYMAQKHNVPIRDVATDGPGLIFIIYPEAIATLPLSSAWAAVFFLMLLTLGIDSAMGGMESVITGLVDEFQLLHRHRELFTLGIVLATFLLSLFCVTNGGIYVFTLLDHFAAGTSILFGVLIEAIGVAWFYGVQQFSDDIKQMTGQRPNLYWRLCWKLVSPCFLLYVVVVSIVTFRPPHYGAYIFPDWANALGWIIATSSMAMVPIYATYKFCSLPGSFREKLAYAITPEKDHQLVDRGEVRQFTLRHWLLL
T1 sequence (P23977 whole entry): as above

By EC50 is commonly meant the concentration at which the effect is half-maximal. Regarding `CN(C)c1ncc(-c2nc(NCCC(c3ccccc3)c3ccccc3)c3ccccc3n2)cn1` [compound 20, N-(3,3-Diphenylpropyl)-2-(2-(Dimethylamino)Pyrimidin-5-yl)Quinazolin-4-Amine], the EC50 in assay [1] was determined as 2.2 ± 0.5 µM. For the same compound, the “NE Uptake Emax (% I ± SD)” value in assay [2] (setting [6]) amounted to 64 ± 5 % I. Moreover, the IC50 in assay [2] (setting [7]) was determined as 8130 ± 2270 nM. Besides, in assay [3] (Emax of D-amphetamine for [^3H]MPP^+ release in presence of 12500 nM test compound), the “D-Amphetamine Emax (% ± SD)” value is reported as 103 ± 2%. Further, the Kb in assay [3] came to 64600 nM.
As for `c1ccc(C(CCNc2nc(-c3ccc4[nH]ccc4c3)nc3ccccc23)c2ccccc2)cc1` [compound 21, N-(3,3-Diphenylpropyl)-2-(1H-Indol-5-yl)Quinazolin-4-Amine], the EC50 in assay [1] amounted to 0.2 µM. In addition, the “NE Uptake Emax (% I ± SD)” value in assay [2] (setting [6]) is listed as 77 ± 3 % I. For the same compound, the IC50 in assay [2] (setting [7]) was determined as 346 ± 59 nM. Besides, the “D-Amphetamine Emax (% ± SD)” value in assay [3] (setting [8]) was 78 ± 2%. Moreover, the Kb in assay [3] was found to be 886 nM. In assay [3] (d-amphetamine-induced DAT-mediated [^3H]MPP^+ release, blocking concentration ˜25 times IC50 for DAT uptake inhibition), the “effect on the d-amphetamine Emax value, in words” value is given as “no significant effect”.
Consider `c1ccc(C(CNc2nc(-c3cnc4nccn4c3)nc3ccccc23)c2ccccc2)cc1` [compound 89, N-(2,2-Diphenylethyl)-2-(Imidazo[1,2-A]Pyrimidin-6-yl)Quinazolin-4-Amine], for which the Emax worked out at 51 ± 1% in assay [4], 18 ± 4% in assay [1], 68 ± 1% in assay [5] (read-out: DAT Uptake Emax) and 68% in assay [5] (setting [11]). Moreover, the IC50 worked out at 4.7 ± 0.6 nM in assay [4]; 2.1 ± 0.3 nM in assay [5] (setting [9]); 2 nM in assay [5] (setting [10]); 63 ± 9 nM in assay [2] (setting [7]); 63 ± 9 nM in assay [2] (setting [12]). Also, the “NET Uptake Emax” value in assay [2] (mean ± S.D., n = 3) was found to be 69 ± 2%. In addition, the “NE Uptake Emax (% I ± SD)” value in assay [2] (setting [6]) is on record as 69 ± 2 % I. For the same compound, the “D-Amphetamine Emax (% ± SD)” value in assay [3] (Emax of D-amphetamine for [^3H]MPP^+ release in presence of 50 nM test compound) was 102 ± 2%. The “Apparent Kc” value in assay [3] is -1070 nM.
Turning to `CN(C)c1ncc(-c2nc(NCC(c3ccccc3)c3ccccc3)c3ccccc3n2)cn1` [compound 16, 2-(2-(Dimethylamino)pyrimidin-5-yl)-N-(2,2-diphenylethyl)quinazolin-4-amine], the Emax in assay [4] came to 55 ± 5%; in assay [1] it was 76 ± 2%; in assay [5] (read-out: DAT Uptake Emax), 73 ± 1%; in assay [5] (setting [11]), 73%. The IC50 in assay [4] amounted to 37 ± 18 nM; in assay [5] (setting [9]), 20 ± 1 nM; in assay [5] (setting [10]), 20 nM; in assay [2] (setting [7]), 181 ± 46 nM; in assay [2] (setting [12]) it was 181 ± 46 nM. Besides, in assay [1], the EC50 is 1.7 ± 0.2 µM. Also, in assay [2] (mean ± S.D., n = 3), the “NET Uptake Emax” value stood at 73 ± 4%. For the same compound, in assay [2] (setting [6]), the “NE Uptake Emax (% I ± SD)” value is 73 ± 4 % I. In addition, the “D-Amphetamine Emax (% ± SD)” value in assay [3] (setting [8]) was 101 ± 3%. The “Apparent Kc” value in assay [3] turned out to be 1820 nM. In addition, the Kb in assay [3] was determined as 1820 nM.
For the compound `c1ccc(C(CNc2nc(-c3cnc4nccn4c3)nc3ccccc23)c2ccccn2)cc1` (centres unmarked) [compound 98, 2-(Imidazo[1,2-A]Pyrimidin-6-yl)-N-(2-Phenyl-2-(Pyridin-2-yl)Ethyl)Quinazolin-4-Amine], the results for the Emax in assay [4], in assay [1] and in assay [5] (read-out: DAT Uptake Emax) were 54 ± 2%, 62 ± 7% and 71 ± 2%, respectively. The IC50 in assay [4] is 28 ± 6 nM; in assay [5] (setting [9]), 18 ± 3 nM; in assay [2] (setting [7]) it was 132 ± 16 nM; in assay [2] (setting [12]) it was 132 ± 16 nM. Besides, in assay [2] (mean ± S.D., n = 3), the “NET Uptake Emax” value was 77 ± 2%. Also, the “NE Uptake Emax (% I ± SD)” value in assay [2] (setting [6]) was found to be 77 ± 2 % I.
In the case of `OC(CNc1nc(-c2ccc3[nH]ccc3c2)nc2ccccc12)(c1ccccc1)c1ccccc1` [compound 81, 2-((2-(1H-Indol-5-yl)Quinazolin-4-yl)Amino)-1,1-Diphenylethanol], the Emax in assay [4] was determined as 57 ± 2%; in assay [1], 55 ± 3%; in assay [5] (read-out: DAT Uptake Emax), 70 ± 2%. Moreover, the IC50 came to 35 ± 9 nM in assay [4], 11 ± 2 nM in assay [5] (setting [9]), 203 ± 79 nM in assay [2] (setting [7]) and 203 ± 79 nM in assay [2] (setting [12]). The “NET Uptake Emax” value in assay [2] (mean ± S.D., n = 3) is recorded as 73 ± 6%. Further, the “NE Uptake Emax (% I ± SD)” value in assay [2] (setting [6]) turned out to be 73 ± 6 % I.
Take `CS(=O)(=O)Nc1ccc(-c2nc(NCC(c3ccccc3)c3ccccc3)c3ccccc3n2)c(Cl)c1` [SRI-31043]: the IC50 amounted to 22 ± 5 nM in assay [4], 11 ± 1 nM in assay [5] (setting [9]) and 47 ± 10 nM in assay [2] (setting [12]). Further, the Emax in assay [1] came out at 30 ± 3%. In addition, the “NET Uptake Emax” value in assay [2] (mean ± S.D., n = 3) turned out to be 67 ± 2%.
